Data: patent US11618746B2, “Inhibitors of APOL1 and methods of using same” (Vertex Pharmaceuticals Incorporated, priority 2018, dated 2023)

Each compound was assayed against T1, G1 APOL1 (Homo sapiens, UniProt O14791, I384M/S342G) (assay: Acute APOL1 Thallium Assay with inducible stable clones of HEK 293 cells). Details: HEK T-Rex tetracycline-inducible cells expressing G1 APOL1 (clone G1 DC3.25); inhibition of thallium flux rate.
T1 construct: expressed in transfected cells
T1 sequence (O14791 28-398 S342G/I384M): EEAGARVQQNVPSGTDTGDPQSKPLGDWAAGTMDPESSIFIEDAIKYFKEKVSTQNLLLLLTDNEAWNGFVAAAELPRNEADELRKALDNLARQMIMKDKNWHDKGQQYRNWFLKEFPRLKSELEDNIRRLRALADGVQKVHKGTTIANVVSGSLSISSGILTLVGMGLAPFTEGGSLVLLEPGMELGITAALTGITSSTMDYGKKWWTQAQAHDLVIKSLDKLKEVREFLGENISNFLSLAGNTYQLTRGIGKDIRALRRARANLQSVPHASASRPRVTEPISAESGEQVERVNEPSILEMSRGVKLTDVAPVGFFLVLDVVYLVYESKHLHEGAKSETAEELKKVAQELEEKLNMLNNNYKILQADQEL
Format: cell-based
Description: Acute APOL1 Thallium Assay with Inducible Stable Clones of HEK 293 Cells
Apolipoprotein L1 (APOL1) proteins form potassium-permeable cation pores in the plasma membrane. APOL1 risk variants (G1 and G2) induce greater potassium flux than G0 in HEK293 cells. This assay exploits the permeability of thallium (T1+) through ligand-gated potassium channels. The dye produces a bright fluorescent signal upon binding to T1+ conducted through potassium channels. The intensity of the T1+ signal is proportional to the number of potassium channels in the open state. Therefore, it provides a functional indication of the potassium channel activities. During the initial dye-loading step, the T1+ indicator dye as an acetoxymethyl (AM) ester enters the cells through passive diffusion. Cytoplasm esterases cleave the AM ester and relieve its active thallium-sensitive form. The cells are then stimulated with T1+. The increase of fluorescence in the assay represents the influx of T1+ into the cell specifically through the potassium channel (i.e. through APOL1 pores), providing a functional measurement of potassium channel/pore activity. The Thallium assay is conducted with cells expressing G1 APOL1.
APOL1 Cell Line (HEK T-Rex Stable Inducible Cell Line) • HEK T-Rex System • Tetracycline (Tet) inducible mammalian expression system. • Stably express the Tet repressor to regulate transcription. • Expression under the full-length CMV promoter. • APOL1 stable inducible cell line Clone used: G1 DC3.25
Tissue Culture Media • Cell Culture Medium • DMEM +10% FBS +P/S +5 μg/mL blasticidin+1 μg/mL puromycin. • 500 mL DMEM +55 mL FBS +5 mL P/S +280 μL blasticidin S HCl (10 mg/mL)+56 μL puromycin (10 mg/mL). • Cell Assay Medium • DMEM with 2% FBS+pen strep.
Instruments and Equipment • Nuaire cell culture hood, Cat. No. 540-600 • 37° C./5% CO2 incubator link to robotic arm, Liconic: STX110 • Molecular Devices FLIPR^Tetra High throughput cellular screening system, Cat. No. FT0324, Molecular Devices • ThermoFisher MultiDrop 384, Cat. No. 5840300 • Biotek Microfill, Cat. No. ASF1000A-4145 • BioRad TC10 cell counter, Cat. No. 145-0010 Assay Procedures
Cells Scaled Up from Frozen Vials • APOL1 G1 3.25 (HEK293 T-Rex) frozen vials: 5 million cells per vial • Step 1, Day 1: Defrost frozen vial into T-225. • Step 2, Day 5: (when 85% confluent): Split one T-225 at 3×10^6 cells per flask. • Step 3, Day 8: Splits cells to set up for the assay plates as described below.
T-Rex APOL1 HEK cells are split twice per week to keep the confluence state below 85% of the culture flask surface area. Cells can be kept until passage 25. • Cell Culture Medium • DMEM high glucose +10% FBS, +P/S, +5 μg/mL blasticidin, +1 μg/mL puromycin. • 500 mL DMEM, +55 mL FBS, +5 mL P/S, +280 μL blasicidin 10 mg/mL, +56 μL Puromycin 10 mg/mL. • Assay Media • Opti-MEM reduced serum medium from Invitrogen.
Preparation of Cell Assay Plates • Culture medium is removed from the x cm^2 T-flask by aspiration. • The cell monolayer is rinsed with PBS 1× at room temperature. PBS is removed by aspiration. • Cells are trypsinized using Trypsin. • The flasks are incubated at room temperature for 2-3 minutes. • Complete DMEM medium is then added. Cell suspension is then transferred to a 50 mL Falcon polypropylene tube. • Cells are then counted using a Biorad TC10 cell counter and the required amount of cells are centrifuged at 1200 RPM for 5 minutes. Required amount is 1.3×10^6 cells/mL APOL1 T-Rex HEK cells. • The pellet is suspended in the assay medium. • Using the MultiDrop, add 20 μL to each well (corresponds to 26000 cells total per well) of a 384-well black, transparent, flat bottom Poly-D coated plate. • Tetracycline as prepared in the following section is added to the cells before plating to induce APOL1 expression. • Plates are left at room temperature for 20 to 30 minutes before incubation at 37° C. and 5% CO2. […]
Work on `O=C(CCc1c(-c2ccc(F)cc2)[nH]c2cc(O)ccc12)N[C@@H]1C(=O)NC[C@H]1O` (stereo in doubt) [Compound 110, 3-[2-(4-fluorophenyl)-6-hydroxy-1H-indol-3-yl]-N-[(3S,4R)-4-hydroxy-2-oxo-pyrrolidin-3-yl]propanamide] yielded an IC50 greater than 1000 nM.
In the case of `CC(=O)O[C@@H]1CNC(=O)[C@H]1NC(=O)CCc1c(-c2ccc(F)cc2)[nH]c2c(F)cc(F)cc12` [Compound 4, [(3R,4S)-4-[3-[5,7-difluoro-2-(4-fluorophenyl)-1H-indol-3-yl]propanoylamino]-5-oxo-pyrrolidin-3-yl]acetate], the IC50 is reported as greater than 1000 nM.
Compound `O=C(N[C@H]1CCNC1=O)[C@H](O)Cc1c(-c2ccc(F)cc2)[nH]c2c(F)cc(F)cc12` [Compound 93, (2R)-3-[5,7-difluoro-2-(4-fluorophenyl)-1H-indol-3-yl]-2-hydroxy-N-[(3S)-2-oxopyrrolidin-3-yl]propanamide] has an IC50 greater than 1000 nM.
`CC(C)(O)c1cccc2c(CCC(=O)N[C@@H]3C(=O)NC[C@H]3O)c(-c3ccccc3)[nH]c12` [Compound 66] gave an IC50 of 250 to 1000 nM.
`O=C(CCc1c(-c2ccc(F)cc2)[nH]c2c(Cl)cc(F)cc12)N[C@H]1CCNC1=O` [Compound 34] was tested, and the IC50 was less than 250 nM.
`O=C(CCc1c(-c2ccc(F)cc2)[nH]c2c(F)cc(Cl)cc12)N[C@@H]1CCNC1=O` [Compound 33] gave an IC50 of 250 to 1000 nM.
`O=C(CCc1c(-c2ccc(F)cc2)[nH]c2c(C(F)(F)F)cccc12)N[C@@H]1C(=O)NC[C@H]1O` [Compound 111, 3-[2-(4-fluorophenyl)-7-(trifluoromethyl)-1H-indol-3-yl]-N-[(3S,4R)-4-hydroxy-2-oxo-pyrrolidin-3-yl]propanamide] gave an IC50 of less than 250 nM.
`O=C(CCc1c(-c2ccc(F)cc2)[nH]c2c(C(F)F)cc(F)cc12)N[C@@H]1C(=O)NC[C@H]1O` [Compound 100, 3-[7-(difluoromethyl)-5-fluoro-2-(4-fluorophenyl)-1H-indol-3-yl]-N-[(3S,4R)-4-hydroxy-2-oxo-pyrrolidin-3-yl]propanamide] gave an IC50 of less than 250 nM.
For `CC(C)c1cccc2c(CCC(=O)N[C@@H]3C(=O)NC[C@H]3O)c(-c3ccccc3)[nH]c12` [Compound 68], the IC50 was 250 to 1000 nM.
`O=C(CCc1c(-c2ccc(F)cc2)[nH]c2ccccc12)N[C@H]1C(=O)NC[C@@H]1O` [Compound 134, 3-[2-(4-fluorophenyl)-1H-indol-3-yl]-N-[(3R,4S)-4-hydroxy-2-oxo-pyrrolidin-3-yl]propanamide] was tested, and the IC50 was greater than 1000 nM.
For `O=C(CCc1c(-c2ccccc2)[nH]c2c(C3=CCOC3)cccc12)N[C@@H]1C(=O)NC[C@H]1O` [Compound 64], the IC50 was greater than 1000 nM.
For `O=C(CSc1c(-c2ccc(F)cc2)[nH]c2ccccc12)N[C@@H]1C(=O)NC[C@H]1O` [Compound 130, 2-[[2-(4-fluorophenyl)-1H-indol-3-yl]sulfanyl]-N-[(3S,4R)-4-hydroxy-2-oxo-pyrrolidin-3-yl]acetamide], the IC50 was less than 250 nM.
Work on `O=C(CCc1c(-c2ccc(F)cc2)[nH]c2c(F)cc(F)cc12)N[C@H]1C[C@H](CF)NC1=O` [Compound 10] yielded an IC50 greater than 1000 nM.
In the case of `O=C(CCc1c(-c2ccccc2)[nH]c2c(F)cccc12)N[C@H]1CCNC1=O` [Compound 60], the IC50 is reported as 250 to 1000 nM.
`Cc1ccc(-c2[nH]c3c(F)cc(F)cc3c2CCC(=O)N[C@@H]2C(=O)NC[C@H]2O)cc1` [Compound 22] showed an IC50 of less than 250 nM.
`COc1cccc2c(CCC(=O)N[C@H]3CCNC3=O)c(-c3ccc(F)cc3)[nH]c12` [Compound 77] gave an IC50 greater than 1000 nM.
`Cc1cc(F)cc2c(CCC(=O)N[C@H]3CCNC3=O)c(-c3ccc(F)cc3)[nH]c12` [Compound 39] gave an IC50 of 250 to 1000 nM.
`O=C(CCc1c(-c2ccc(F)cc2)[nH]c2c(F)cc(F)cc12)N[C@H]1C(=O)NC[C@@H]1O` [Compound 12] showed an IC50 of 250 to 1000 nM.
For `O=C(CCc1c(-c2ccccc2)[nH]c2c(C(F)(F)F)cc(F)cc12)N[C@@H]1C(=O)NC[C@H]1O` [Compound 132, 3-[5-fluoro-2-phenyl-7-(trifluoromethyl)-1H-indol-3-yl]-N-[(3S,4R)-4-hydroxy-2-oxo-pyrrolidin-3-yl]propanamide], the IC50 was less than 250 nM.
For `CC(CC(=O)N[C@H]1CCNC1=O)c1c(-c2ccc(F)cc2)[nH]c2c(F)cc(F)cc12` (mixture of isomers) [Compound 96, 3-[5,7-difluoro-2-(4-fluorophenyl)-1H-indol-3-yl]-N-[(3S)-2-oxopyrrolidin-3-yl]butanamide], the IC50 was greater than 1000 nM.
For `Cc1ccc(-c2[nH]c3c(F)cc(F)cc3c2CCC(=O)N[C@H]2CCNC2=O)cc1` [Compound 23], the IC50 was less than 250 nM.
`O=C(CCc1c(-c2ccc(F)cc2)[nH]c2c(F)cc(F)cc12)N[C@H]1C[C@@H](CF)NC1=O` [Compound 9] was tested, and the IC50 was greater than 1000 nM.
`Cc1c(F)ccc2c(CCC(=O)N[C@@H]3C(=O)NC[C@H]3O)c(-c3ccccc3)[nH]c12` [Compound 84] gave an IC50 of less than 250 nM.
